Assays:
[1] = tested on: patients with essential tremor; assay: T-CALM: TETRAS total score; assay type: in vivo, human
Procedure: The Total TETRAS score was defined as the sum of the TETRAS performance subscale total score and the TETRAS ADL subscale score. TETRAS TOTAL score combines both patient reported outcome and objective measurement of tremor amplitude in a single score. Analyses of the TETRAS-ADL was conducted using the same type of ANCOVA model as described for the TETRAS-PS, using two-sided tests at the alpha=0.05 level of significance (FIG. 3 and Table 3).
(§1) Both sets of scores were statistically analyzed.

Solubility of CX-8998 = assay type: physicochemical; conditions: at higher pH values
Description: Sustained release (SR) beads were developed with multiple types of sustained release and enteric coatings. Some SR matrix beads were developed using typical polymers (e.g., hydroxypropyl methylcellulose or carbopol) to achieve sustained release. Some SR matrix beads were developed using pH independent sustained release osmotic pumps to achieve zero order release from the tablet. […] Some SR matrix beads were developed using Eudragit RS/RL30D coating of IR beads to achieve an approach that depends on slow erosion of coating thereby sustaining the release of the drug from an IR matrix.

EEG alpha power = assay: Human pharmaco-EEG alpha power (Study PN001/Part II); assay type: in vivo; conditions: at plasma concentrations greater than 200 to 300 nM (4 mg BID)
Description: FIG. 91 contains a graph showing the analysis of awake EEG absolute power for Alpha band (Electrode site Oz, eyes closed condition) (Study PN001/Part II).
FIG. 92 contains a graph showing the pharmacokinetic/pharmacodynamic analysis of EEG Alpha power (Study PN001/Part 1). BID=twice daily; EEG=electroencephalogram; MK=CX-8998; PBO=placebo; PD=pharmacodynamic.

[2] = tested on: patients with essential tremor; assay: T-CALM: TETRAS performance subscale, independent video raters; assay type: in vivo, human; conditions: Day 28
Description: as §1

[3] = tested on: patients with essential tremor; assay: T-CALM: TETRAS performance subscale, investigator rated
[4] = Day 15, change from baseline, N = 39
[5] = Day 28, change from baseline, N = 37

In the case of CC(C)c1ccc(CC(=O)N[C@H](C)c2ccc(OCC(F)(F)F)cn2)cc1 [CX-8998], the “Subjects with improvement of at least 5 points by TETRAS Total score, number” value ([1]; Day 15, N 39) was 22, the “TETRAS Total Score, subjects with 0 change, n (%)” value [1, 4] was 1 (2.6%) and the “TETRAS Total Score, subjects with >0 to 1 point improvement, n (%)” value [1, 4] was 2 (5.1%). For the same compound, the “TETRAS Total Score, subjects with >0 to 1 point worsening, n (%)” value [1, 4] was 2 (5.1%), the “TETRAS Total Score, subjects with >1 to 2.5 point improvement, n (%)” value [1, 4] was 2 (5.1%) and the “TETRAS Total Score, subjects with >1 to 2.5 point worsening, n (%)” value [1, 4] was 1 (2.6%). The “TETRAS Total Score, subjects with >2.5 to 5 point improvement, n (%)” value [1, 4] was 7 (17.9%), the “TETRAS Total Score, subjects with >2.5 to 5 point worsening, n (%)” value [1, 4] was 4 (10.3%) and the “TETRAS Total Score, subjects with >5 to 10 point improvement, n (%)” value [1, 4] was 6 (15.4%). For the same compound, the “TETRAS Total Score, subjects with >5 to 10 point worsening, n (%)” value [1, 4] was 0, the “TETRAS Total Score, subjects with >10 point worsening, n (%)” value [1, 4] was 0 and the “TETRAS Total Score, subjects with >10 to 20 point improvement, n (%)” value [1, 4] was 12 (30.8%). For the same compound, the “TETRAS Total Score, subjects with >20 point improvement, n (%)” value [1, 4] was 2 (5.1%), the “total TETRAS score with TETRAS-PS rated by independent video raters, vs placebo” value ([1]; Day 15 or 28) was “not statistically significant” and the “Subjects with improvement of at least 5 points by TETRAS Total score, number” value ([1]; Day 28, N 37) was 21. The “TETRAS Total Score, subjects with 0 change, n (%)” value [1, 5] was 0, the “TETRAS Total Score, subjects with >0 to 1 point improvement, n (%)” value [1, 5] was 2 (5.4%) and the “TETRAS Total Score, subjects with >0 to 1 point worsening, n (%)” value [1, 5] was 4 (10.8%). The “TETRAS Total Score, subjects with >1 to 2.5 point improvement, n (%)” value [1, 5] was 2 (5.4%), the “TETRAS Total Score, subjects with >1 to 2.5 point worsening, n (%)” value [1, 5] was 2 (5.4%) and the “TETRAS Total Score, subjects with >2.5 to 5 point improvement, n (%)” value [1, 5] was 5 (13.5%). The “TETRAS Total Score, subjects with >2.5 to 5 point worsening, n (%)” value [1, 5] was 1 (2.7%), the “TETRAS Total Score, subjects with >5 to 10 point improvement, n (%)” value [1, 5] was 7 (18.9%) and the “TETRAS Total Score, subjects with >5 to 10 point worsening, n (%)” value [1, 5] was 0. The “TETRAS Total Score, subjects with >10 point worsening, n (%)” value [1, 5] was 0, the “TETRAS Total Score, subjects with >10 to 20 point improvement, n (%)” value [1, 5] was 8 (21.6%) and the “TETRAS Total Score, subjects with >20 point improvement, n (%)” value [1, 5] was 5 (13.5%). For the same compound, the solubility (Solubility of CX-8998) was “poor solubility”, the “reduction of EEG alpha power” value (EEG alpha power) was no less than 25% and the “LS mean (±SE) change from baseline in TETRAS-PS scored by independent video raters (primary endpoint)” value [2] was −1.8±0.81. The “TETRAS-PS Score, subjects with 0 change, n (%)” value [3, 4] was 2 (5.1%), the “TETRAS-PS Score, subjects with >0 to 1 point improvement, n (%)” value [3, 4] was 3 (7.7%) and the “TETRAS-PS Score, subjects with >0 to 1 point worsening, n (%)” value [3, 4] was 2 (5.1%). The “TETRAS-PS Score, subjects with >1 to 2.5 point improvement, n (%)” value [3, 4] was 4 (10.3%), the “TETRAS-PS Score, subjects with >1 to 2.5 point worsening, n (%)” value [3, 4] was 5 (12.8%) and the “TETRAS-PS Score, subjects with >2.5 to 5 point improvement, n (%)” value [3, 4] was 10 (25.6%). The “TETRAS-PS Score, subjects with >2.5 to 5 point worsening, n (%)” value [3, 4] was 2 (5.1%), the “TETRAS-PS Score, subjects with >5 to 10 point improvement, n (%)” value [3, 4] was 8 (20.5%) and the “TETRAS-PS Score, subjects with >5 to 10 point worsening, n (%)” value [3, 4] was 0. For the same compound, the “TETRAS-PS Score, subjects with >10 point improvement, n (%)” value [3, 4] was 3 (7.7%), the “TETRAS-PS Score, subjects with >10 point worsening, n (%)” value [3, 4] was 0 and the “LS mean (±SE) change from baseline in TETRAS-PS scored by investigators (in person), primary endpoint analysis” value ([3]; Day 28) was −4.8±0.80. For the same compound, the “Subjects with improvement of at least 5 points by TETRAS-PS score, number” value ([3]; Day 28, N 37) was 16, the “Subjects with improvement of at least 5 points by TETRAS-PS score, percent” value ([3]; Day 28, N 37) was “(43.2%)” and the “TETRAS-PS Score, subjects with 0 change, n (%)” value [3, 5] was 1 (2.6%). The “TETRAS-PS Score, subjects with >0 to 1 point improvement, n (%)” value [3, 5] was 6 (15.4%), the “TETRAS-PS Score, subjects with >0 to 1 point worsening, n (%)” value [3, 5] was 2 (5.1%) and the “TETRAS-PS Score, subjects with >1 to 2.5 point improvement, n (%)” value [3, 5] was 5 (12.8%). For the same compound, the “TETRAS-PS Score, subjects with >1 to 2.5 point worsening, n (%)” value [3, 5] was 1 (2.6%), the “TETRAS-PS Score, subjects with >2.5 to 5 point improvement, n (%)” value [3, 5] was 11 (28.2%) and the “TETRAS-PS Score, subjects with >2.5 to 5 point worsening, n (%)” value [3, 5] was 1 (2.6%). The “TETRAS-PS Score, subjects with >5 to 10 point improvement, n (%)” value [3, 5] was 8 (20.5%), the “TETRAS-PS Score, subjects with >5 to 10 point worsening, n (%)” value [3, 5] was 0 and the “TETRAS-PS Score, subjects with >10 point improvement, n (%)” value [3, 5] was 4 (10.3%). For the same compound, the “TETRAS-PS Score, subjects with >10 point worsening, n (%)” value [3, 5] was 0.
